US5552404A, “Opioid compounds and methods for using same” (Delta Pharmaceuticals, Inc., priority 1995, dated 1996)

What was measured:
[1] = test system: rodent test subjects; experiment: Proconvulsant activity in rodent tests
[2] = target: delta opioid receptor (Mus musculus, UniProt P32300); experiment: Agonism at delta opioid receptor
[3] = test system: rodent test subjects; experiment: Analgesia; assay type: in vivo; conditions: for analgesia efficacy: in vivo; for analgesia compared with morphine: rodent test subjects
[4] = test system: rodent test subjects; experiment: Muscle rigidity in rodents; conditions: vs morphine
[5] = test system: mu opioid receptor; experiment: Agonism at mu opioid receptor
[6] = test system: opioid receptors (mu/delta); experiment: Opioid receptor ligand selectivity / mixed agonist character
[7] = test system: rodent test subjects; experiment: Respiratory depression in rodents; conditions: vs morphine
[8] = test system: pressure nociception in rats; experiment: Analgesic activity, tail pinch assay in rats (i.v.); assay type: in vivo, rat (male Sprague-Dawley CD strain); conditions: iv, 5 min, rat tail pinch, 5 minutes after injection, read-out: Antinociceptive ED50 (half-maximum effective dose)
Method: Analgesic activity was assessed by the tail pinch assay in rats (male Sprague-Dawley CD strain, weight approximately 300 g) after intravenous (i.v.) tail vein injection. A group of 6 to 8 animals was injected i.v. with compound in sterile 5% dextrose solution at a concentration of 1-5 mg/mL. Five minutes after injection, an artery clamp (Fisher Scientific Co., self-closing artery forcep, catalog #08-905) was placed on the tail about one inch from the tip of the tail to induce pressure nociception for a short duration (maximum of 20 seconds). The nociceptive response was judged by any sign of discomfort, such as running, squeaking, or turning around to bite the clamp. The dose-response curve was plotted for each compound.

delta opioid receptor, sequence (P32300 whole entry): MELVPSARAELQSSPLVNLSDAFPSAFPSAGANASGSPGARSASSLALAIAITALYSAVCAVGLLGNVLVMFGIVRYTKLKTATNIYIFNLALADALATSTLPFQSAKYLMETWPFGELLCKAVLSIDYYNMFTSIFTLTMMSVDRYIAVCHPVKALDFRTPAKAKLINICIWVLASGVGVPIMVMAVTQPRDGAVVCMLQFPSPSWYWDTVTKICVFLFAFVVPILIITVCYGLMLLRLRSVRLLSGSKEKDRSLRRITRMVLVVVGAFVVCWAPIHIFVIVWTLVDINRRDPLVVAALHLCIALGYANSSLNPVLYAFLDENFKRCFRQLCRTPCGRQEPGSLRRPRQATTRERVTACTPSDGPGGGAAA

SMILES	proconvulsant activity [1]	agonism at delta opioid receptor [2]	analgesia efficacy [3]	analgesia compared with morphine [3]	muscle rigidity [4]	agonism at mu opioid receptor [5]	opioid agonist character [6]	opioid receptor ligand selectivity [6]	respiratory depression [7]	ED50 [8]
C=CCN1C[C@H](C)N([C@@H](c2cccc(O)c2)c2cccc(C(=O)N(CC)CC)c2)C[C@H]1C [Example 1, (+)-3-((αR)-α-((2S,5R)-4-Allyl-2,5-dimethyl-1-piperazinyl)-3-hydroxybenzyl)-N,N-diethylbenzamide]	free of proconvulsant activity	agonism	efficacious in mediating analgesia	comparable to mu-analgesic morphine	much reduced extent	agonism	mixed mu/delta opioid agonists	highly selective	much reduced extent	0.35 mg/kg
C=CCN1C[C@H](C)N([C@@H](c2cccc(O)c2)c2cccc(C(=O)N(C)c3ccccc3)c2)C[C@H]1C [Example 9, (+)-3-((αR)-α-((2S,5R)-4-Allyl-2.5dimethyl-1-piperazinyl)-3-hydroxybenzyl)-N-methyl-N-phenylbenzamide]	free of proconvulsant activity	agonism	efficacious in mediating analgesia	comparable to mu-analgesic morphine	much reduced extent	agonism	mixed mu/delta opioid agonists	highly selective	much reduced extent	–
C=CCN1C[C@H](C)N([C@@H](c2cccc(O)c2)c2cccc(C(=O)N(C)c3ccc(F)cc3)c2)C[C@H]1C [Example 10, (+)-3-((αR)-α-((2S,5R)-4-Allyl-2,5-dimethyl-1-piperazinyl)-3-hydroxybenzyl)-N-(4-fluorophenyl)-N-methylbenzamide]	free of proconvulsant activity	agonism	efficacious in mediating analgesia	comparable to mu-analgesic morphine	much reduced extent	agonism	mixed mu/delta opioid agonists	highly selective	much reduced extent	–
C=CCN1C[C@H](C)N([C@@H](c2cccc(O)c2)c2cccc(C(=O)N(CC)c3ccccc3)c2)C[C@H]1C [Example 12, (+)-3-((αR)-α-((2S,5R)-4-Allyl-2,5-dimethyl-1-piperazinyl)-3-hydroxybenzyl)-N-ethyl-N-phenylbenzamide]	free of proconvulsant activity	agonism	efficacious in mediating analgesia	comparable to mu-analgesic morphine	much reduced extent	agonism	mixed mu/delta opioid agonists	highly selective	much reduced extent	–
C=CCN1C[C@H](C)N([C@@H](c2cccc(O)c2)c2cccc(C(=O)N(C)c3cccc(F)c3)c2)C[C@H]1C [Example 16, (+)-3-((αR)-α-((2S,5R)-4-Allyl-2,5-dimethyl-1-piperazinyl)-3-hydroxybenzyl)-N-(3-fluorophenyl)-N-methylbenzamide]	free of proconvulsant activity	agonism	efficacious in mediating analgesia	comparable to mu-analgesic morphine	much reduced extent	agonism	mixed mu/delta opioid agonists	highly selective	much reduced extent	0.03 mg/kg
C=CCN1C[C@H](C)N([C@@H](c2cccc(O)c2)c2cccc(C(=O)N(CCC)c3ccccc3)c2)C[C@H]1C [Example 27, (+)-3-((αR)-α-((2S,5R)-4-Allyl-2.5-dimethyl-1-piperazinyl)-3-hydroxybenzyl)-N-phenyl-N-propylbenzamide]	free of proconvulsant activity	agonism	efficacious in mediating analgesia	comparable to mu-analgesic morphine	much reduced extent	agonism	mixed mu/delta opioid agonists	highly selective	much reduced extent	0.04 mg/kg
C=CCN1C[C@H](C)N([C@@H](c2cccc(O)c2)c2cccc(C(=O)N(CC)c3ccc(F)cc3)c2)C[C@H]1C [Example 28, (+)-3-((αR)-α-((2S,5R)-4-Allyl-2,5-dimethyl-1-piperazinyl)-3-hydroxybenzyl)-N-ethyl-N-(4-fluorophenyl)benzamide]	free of proconvulsant activity	agonism	efficacious in mediating analgesia	comparable to mu-analgesic morphine	much reduced extent	agonism	mixed mu/delta opioid agonists	highly selective	much reduced extent	0.03 mg/kg
C=CCN1C[C@H](C)N([C@@H](c2cccc(O)c2)c2cccc(C(=O)N(C)c3ccc(OC)cc3)c2)C[C@H]1C [Example 30, (+)-3-((αR)-α-((2S,5R)-4-Allyl-2.5-dimethyl-1-piperazinyl)-3-hydroxybenzyl)-N-(4-methoxyphenyl)-N-methylbenzamide]	free of proconvulsant activity	agonism	efficacious in mediating analgesia	comparable to mu-analgesic morphine	much reduced extent	agonism	mixed mu/delta opioid agonists	highly selective	much reduced extent	–
C=CCN1C[C@H](C)N([C@@H](c2cccc(O)c2)c2cccc(C(=O)N(C)c3ccccc3F)c2)C[C@H]1C [Example 31, (+)-3-((αR)-α-((2S,5R)-4-Allyl-2,5-dimethyl-1-piperazinyl)-3-hydroxybenzyl)-N-(2-fluorophenyl)-N-methylbenzamide]	free of proconvulsant activity	agonism	efficacious in mediating analgesia	comparable to mu-analgesic morphine	much reduced extent	agonism	mixed mu/delta opioid agonists	highly selective	much reduced extent	–
